Reference: the supplement of paper PMC10307832

Legend:
Experiment in all cases: relative viability (nuclei count vs DMSO), 5 days (fraction); higher = more cells survive
Bleomycin + Alpelisib = compound: CC1=C(N=C(N=C1N)[C@H](CC(=O)N)NC[C@@H](C(=O)N)N)C(=O)N[C@@H]([C@H](C2=CN=CN2)OC3C(C(C(C(O3)CO)O)O)OC4C(C(C(C(O4)CO)O)OC(=O)N)O)C(=O)N[C@H](C)[C@H]([C@H](C)C(=O)N[C@@H]([C@@H](C)O)C(=O)NCCC5=NC(=CS5)C6=NC(=CS6)C(=O)NCCC[S+](C)C)O [Bleomycin] + Cc1nc(NC(=O)N2CCC[C@H]2C(N)=O)sc1-c1ccnc(C(C)(C)C(F)(F)F)c1 [Alpelisib] (partner 2 µM); conditions: main component drawn
Procedure, shortened: (§1)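 Lung cancer cell lines in 1536-well plates were dosed by pin tool the day after seeding, either with one drug alone or with a fixed anchor-drug dose plus five library-drug doses (not always all listed) in √10 steps. After 5 days, cells were fixed and their nuclei stained in one step (final 0.05% Triton X-100, 1% formaldehyde, 1 ug/ml Hoechst), then counted on 4× images. Relative viability is the nuclei count in treated wells divided by that in vehicle wells. Values are medians of duplicate plates.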

Etoposide + Foretinib = compound: COc1cc([C@@H]2c3cc4c(cc3[C@@H](O[C@@H]3O[C@@H]5CO[C@@H](C)O[C@H]5[C@H](O)[C@H]3O)[C@H]3COC(=O)[C@H]23)OCO4)cc(OC)c1O [Etoposide] + COc1cc2c(Oc3ccc(NC(=O)C4(C(=O)Nc5ccc(F)cc5)CC4)cc3F)ccnc2cc1OCCCN1CCOCC1 [Foretinib] (partner 0.25 µM)
Procedure, shortened: as §1

Etoposide + Phenformin = compound: COc1cc([C@@H]2c3cc4c(cc3[C@@H](O[C@@H]3O[C@@H]5CO[C@@H](C)O[C@H]5[C@H](O)[C@H]3O)[C@H]3COC(=O)[C@H]23)OCO4)cc(OC)c1O [Etoposide] + N=C(N)NC(=N)NCCc1ccccc1 [Phenformin] (partner 250 µM)
Procedure, shortened: as §1

Bleomycin + Dasatinib = compound: CC1=C(N=C(N=C1N)[C@H](CC(=O)N)NC[C@@H](C(=O)N)N)C(=O)N[C@@H]([C@H](C2=CN=CN2)OC3C(C(C(C(O3)CO)O)O)OC4C(C(C(C(O4)CO)O)OC(=O)N)O)C(=O)N[C@H](C)[C@H]([C@H](C)C(=O)N[C@@H]([C@@H](C)O)C(=O)NCCC5=NC(=CS5)C6=NC(=CS6)C(=O)NCCC[S+](C)C)O [Bleomycin] + Cc1nc(Nc2ncc(C(=O)Nc3c(C)cccc3Cl)s2)cc(N2CCN(CCO)CC2)n1 [Dasatinib] (partner 0.075 µM); conditions: main component drawn
Procedure, shortened: as §1

| Cell Line | relative viability (Bleomycin + Alpelisib; first compound 0.01 µM) | relative viability (Bleomycin + Alpelisib; first compound 0.03162 µM) | relative viability (Bleomycin + Alpelisib; first compound 0.1 µM) | relative viability (Bleomycin + Alpelisib; first compound 0.3162 µM) | relative viability (Bleomycin + Alpelisib; first compound 1 µM) | relative viability (Etoposide + Foretinib; first compound 0.01 µM) | relative viability (Etoposide + Foretinib; first compound 0.03162 µM) | relative viability (Etoposide + Foretinib; first compound 0.1 µM) | relative viability (Etoposide + Foretinib; first compound 0.3162 µM) | relative viability (Etoposide + Foretinib; first compound 1 µM) | relative viability (Etoposide + Phenformin; first compound 0.01 µM) | relative viability (Etoposide + Phenformin; first compound 0.03162 µM) | relative viability (Etoposide + Phenformin; first compound 0.1 µM) | relative viability (Etoposide + Phenformin; first compound 0.3162 µM) | relative viability (Etoposide + Phenformin; first compound 1 µM) | relative viability (Bleomycin + Dasatinib; first compound 0.01 µM) | relative viability (Bleomycin + Dasatinib; first compound 0.03162 µM) | relative viability (Bleomycin + Dasatinib; first compound 0.1 µM) | relative viability (Bleomycin + Dasatinib; first compound 0.3162 µM) | relative viability (Bleomycin + Dasatinib; first compound 1 µM) |
| --- | --- | --- | --- | --- | --- | --- | --- | --- | --- | --- | --- | --- | --- | --- | --- | --- | --- | --- | --- | --- |
| LK-2 | 0.579 | 0.505 | 0.478 | 0.282 | 0.251 | 0.879 | 1.17 | 0.933 | 0.912 | 0.401 | 0.563 | 0.641 | 0.368 | 0.319 | 0.172 | 0.209 | 0.193 | 0.248 | 0.176 | 0.169 |
| LOU-NH91 | 0.604 | 0.498 | 0.469 | 0.388 | 0.322 | 0.919 | 0.949 | 0.745 | 0.795 | 0.406 | 0.692 | 0.756 | 0.692 | 0.653 | 0.404 | 0.562 | 0.391 | 0.448 | 0.306 | 0.251 |
| LU99A | 0.345 | 0.332 | 0.239 | 0.137 | 0.118 | 0.911 | 0.966 | 0.43 | 0.466 | 0.287 | 0.898 | 0.992 | 0.589 | 0.579 | 0.16 | 0.366 | 0.505 | 0.367 | 0.205 | 0.125 |
| LXF-289 | 0.923 | 1.04 | 0.9 | 0.332 | 0.162 | 0.973 | 0.971 | 1.02 | 0.611 | 0.327 | 0.568 | 0.534 | 0.585 | 0.421 | 0.153 | 0.19 | 0.228 | 0.197 | 0.077 | 0.0555 |
| NCI-H23 | 0.327 | 0.298 | 0.192 | 0.127 | 0.122 | 0.924 | 0.941 | 0.678 | 0.4 | 0.242 | 0.822 | 0.834 | 0.633 | 0.392 | 0.259 | 0.535 | 0.552 | 0.321 | 0.148 | 0.167 |
| NCI-H322M | 0.738 | 0.84 | 0.81 | 0.859 | 0.559 | 0.813 | 1 | 0.831 | 0.864 | 0.483 | 0.766 | 0.881 | 0.658 | 0.666 | 0.378 | 0.241 | 0.26 | 0.262 | 0.243 | 0.263 |
| NCI-H358 | 0.889 | 0.799 | 0.712 | 0.481 | 0.349 | 0.705 | 0.756 | 0.447 | 0.184 | 0.134 | 0.341 | 0.402 | 0.219 | 0.114 | 0.0696 | 0.183 | 0.165 | 0.176 | 0.107 | 0.156 |
| NCI-H441 | – | 0.699 | 0.645 | 0.444 | 0.279 | 0.923 | 0.838 | 0.673 | 0.363 | 0.286 | 0.835 | 0.976 | 0.587 | 0.275 | 0.198 | 0.424 | 0.709 | 0.515 | 0.296 | 0.311 |
| NCI-H460 | 0.294 | 0.243 | 0.136 | 0.0356 | 0.017 | 0.871 | 0.907 | 0.809 | 0.142 | 0.0668 | 0.476 | 0.492 | 0.352 | 0.0419 | 0.0382 | 0.362 | 0.318 | 0.244 | 0.0443 | 0.037 |
| NCI-H520 | 0.759 | 0.796 | 0.863 | 0.543 | 0.402 | 0.825 | 0.93 | 0.784 | 0.67 | 0.554 | 0.487 | 0.585 | – | 0.619 | 0.502 | 0.222 | 0.217 | 0.234 | 0.198 | 0.154 |
| NCI-H596 | 0.377 | 0.686 | 0.395 | 0.259 | 0.269 | 0.748 | 0.833 | 1.04 | 0.799 | 0.596 | 0.774 | 0.875 | 0.584 | 0.788 | 0.522 | 0.548 | 0.531 | 0.395 | 0.24 | 0.221 |
| NCI-H647 | 0.575 | 0.448 | 0.337 | 0.109 | 0.0917 | 1.02 | 1.25 | 1.21 | 0.654 | 0.271 | 0.386 | 0.592 | 0.509 | 0.245 | 0.094 | 0.101 | 0.0923 | 0.0574 | 0.039 | 0.0343 |
| NCI-H650 | 0.948 | 1.03 | 0.827 | 0.456 | 0.312 | 0.961 | 0.913 | 0.682 | 0.606 | 0.288 | 0.445 | 0.508 | 0.394 | 0.363 | 0.226 | 0.389 | 0.438 | 0.432 | 0.289 | 0.212 |
| NCI-H661 | 0.439 | 0.66 | 0.411 | 0.247 | 0.196 | 0.982 | 1.06 | 0.889 | 0.845 | 0.53 | 0.283 | 0.289 | 0.267 | 0.249 | 0.208 | 0.741 | 0.657 | 0.623 | 0.262 | 0.242 |
